From PMC4036672 (Analytical biochemistry, 2014)
Where a SMILES comes first, the peptide text is derived from it.

biological target: T1, Neuropilin-2 (Nrp2) (Homo sapiens, UniProt O60462); assay: competition plate assay: AP-VEGF-C binding to immobilised purified Nrp2-b1b2
T1 sequence (O60462 276-595): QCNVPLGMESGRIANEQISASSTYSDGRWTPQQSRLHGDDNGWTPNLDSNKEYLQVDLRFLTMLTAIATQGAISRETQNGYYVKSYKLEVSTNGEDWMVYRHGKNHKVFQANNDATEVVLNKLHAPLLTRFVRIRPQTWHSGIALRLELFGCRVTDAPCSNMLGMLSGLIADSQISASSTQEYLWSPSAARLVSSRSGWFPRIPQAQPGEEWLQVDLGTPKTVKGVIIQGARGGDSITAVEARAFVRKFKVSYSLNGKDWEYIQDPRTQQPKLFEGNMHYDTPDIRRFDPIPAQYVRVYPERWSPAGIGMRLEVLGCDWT

IC50 | Compound
113 µM | Oc1cc2c(cc1O)[C@H]1c3ccccc3CN[C@@H]1CC2 (racemic) [Dihydrexidine]
43 µM | CC(C)C[C@H](NC(=O)[C@H](Cc1c[nH]c2ccccc12)NC(=O)[C@@H](NC(=O)[C@H](C)N)[C@@H](C)O)C(=O)N1CCC[C@H]1C(=O)N1CCC[C@H]1C(=O)N[C@@H](CCCNC(=N)N)C(=O)O [ATWLPPR] (H-ATWLPPR-OH)
66 µM | COc1cc(C(=O)NS(=O)(=O)c2ccccc2C)ccc1Cc1cn(C)c2ccc(NC(=O)OC3CCCC3)cc12 [Zafirlukast]
